Several values for one entry are separate records, joined by “and”; a condition that tells them apart may be missing. Equal entries are not always repeated. Each block holds one molecule with its values, some of them ahead of it.
Assays:
human podocytes = experiment: apoAI-mediated cholesterol efflux in human podocytes; assay type: cell-based; details: for ApoA1-mediated cholesterol efflux (%) in podocytes: single experiments; for Increase in apoAI-mediated cholesterol efflux vs. untreated cells: Cpd G 10 µM, Cpd A 5 µM, Cpd C 1 µM
Protocol: Cell lines were purchased from ATCC and subcultured for no more than passage 15, except for human podocytes, which were originally from Dr Jochen Reiser. Conditionally immortalized human podocytes were cultured under permissive conditions at 33 °C, in RPMI medium (Corning) containing 10% FBS (GIBCO), 1% penicillin/streptomycin, 0.01 mg/ml recombinant human insulin, 0.0055 mg/ml human transferrin (substantially iron-free), and 0.005 μg/ml sodium selenite (ITS, Corning). To induce differentiation, podocytes were cultured at 37 °C for 14 days in RPMI medium containing 10% FBS (GIBCO) and 1% penicillin/streptomycin. Differentiated podocytes were starved in RPMI-0.2% FBS for 18 h and then treated with 1 μM, 5 μM, and 10 μM of compounds freshly prepared in DMSO for 18 h at 37 °C as indicated.
Human podocytes differentiated for 13 days were labeled for 24 h at 37 °C in RPMI medium containing 2% FBS and [^3H]-cholesterol (1 μCi/ml, American Radiolabeled Chemicals). Cells were then washed 3 times with PBS and incubated with RPMI supplemented with 0.2% fat free-BSA (Sigma) with or without compounds for 18-h at 37 °C. The compounds were used at the following concentrations: Cpd C (1 μM), Cpd A (1 μM, 5 μM) and Cpd G (1 μM, 5 μM, 10 μM). Following the 18-h incubation, human apoAI (Calbiochem) was added to the media, (20 μg/mL final concentration) and the cells were incubated for another 18 h at 37 °C. Aliquots of medium collected before (T = 0 h) and after (T = 18 h) the addition of apoAI were centrifuged at 12,000 × g for 5 min and the radioactivity in the supernatant was counted by liquid scintillation. Cells were then washed with PBS, lysed 0.1% SDS, 0.1M NaOH and the radioactivity in the lysates was quantified by liquid scintillation. apoAI-mediated cholesterol efflux, expressed as %, was calculated as the amount of label released to the medium after adding apoAI (the difference in radioactivity in the medium before and after adding ApoA1) divided by the amount of total label in each well (radioactivity released to the media plus radioactivity in the lysed cells).

[1] = tested on: Adriamycin (ADR)-induced nephropathy in Balb/c mice; experiment: ADR nephropathy: blood urea nitrogen (BUN) and serum creatinine; assay type: in vivo, mouse; details: 28 days treatment
Source text: Supplement 41467_2021_24890_MOESM5_ESM.xlsx, sheet "Supplementary Table 4" | column: ADR+ Cpd A; ADR+ Cpd G; ADR+ Cpd C

[2] = tested on: Adriamycin (ADR)-induced nephropathy in Balb/c mice; experiment: ADR nephropathy: serum cholesterol and triglycerides; assay type: in vivo, mouse
[3] = tested on: Adriamycin (ADR)-induced nephropathy in Balb/c mice; experiment: ADR nephropathy: kidney cortex lipids (cholesterol ester, total cholesterol, triglycerides, Oil-red O); assay type: in vivo, mouse; details: for KIDNEY CORTEX TOTAL CHOLESTEROL / KIDNEY CORTEX TRIGLYCERIDES: ADR model
Protocol: OCT embedded kidney cortex samples were cryosectioned at 4 μm thickness and stained with Oil-Red O-isopropanol solution (Electron Microscopy Science, PA) diluted 6:4 in water, and then counterstained with Hematoxylin Harris Hg Free (VWR, PA). Sections were then evaluated using a light microscope (Olympus BX 41, Tokyo, Japan).
Snap frozen kidney cortex samples were homogenized in 2 mM potassium phosphate buffer, pH 7, (10 µl buffer/mg tissue) using a glass douncer on ice. 100 μl of the homogenate were mixed thoroughly with 1 ml of hexane:isopropanol (3:2;v:v) per volume of tissue homogenate. The aqueous (pellet) and organic (supernatant) phases were separated by centrifugation at 12,000 × g for 5 min. Pellets (aqueous phase) were dried, reconstituted in 8 M urea, 0.1% SDS, 0.1 M NaOH, and total proteins were quantified by the BCA method (Thermofisher). The organic phase was dried by exposure to nitrogen. Lipids were then reconstituted in 100 µl isopropanol:NP-40 (9:1;v:v). Triglyceride content was assayed using a colorimetric kit according to the manufacturer’s instructions (Cayman Chemical USA). Total cholesterol and CE content were assayed using an enzymatic fluorometric method. For total cholesterol measurement, extracts were diluted 1:100 in assay buffer (100 mM potassium phosphate, 50 mM NaCl, 5 mM cholic acid, 0.1% Triton […], pH 7.4) containing cholesterol oxidase (1 U/ml), cholesterol esterase (1 U/ml), horseradish peroxidase (1 U/ml), and Amplex Red (75 µM). The reactions were incubated at 37 °C for 30 min in a black opaque 96-well plate (Greiner) and fluorescence was measured in a microplate reader (Spectramax i3X, Molecular Devices) at 530 nm excitation and 580 emission.
For CE determination, 150 µl of the assay buffer described above, supplemented with bovine liver catalase (45 U/ml) and cholesterol oxidase (1 U/ml), was added to 25 μl of sample and incubated overnight at 37 °C to deplete free cholesterol leaving only cholesterol esters. Then, 75 µl of cholesterol ester detection reagent (1 U/ml cholesterol oxidase, 4 U/ml cholesterol esterase, 24 U/ml horseradish peroxidase, 300 µM Amplex Red) was added. The reaction was incubated at 37 °C for 30 min and the fluorescence signal was measured as described above. Internal standards included samples containing 1 mM of cholesterol and 5 μM of cholesterol oleate in order to verify the completeness of the enzymatic decomposition of free cholesterol as well as assay sensitivity and specificity.

[4] = ADR-injected mice, 28-day treatment, 25th quartile
[5] = ADR-injected mice, 28-day treatment, 75th quartile
[6] = ADR-injected mice, 28-day treatment, group maximum
[7] = ADR-injected mice, 28-day treatment, group median
[8] = ADR-injected mice, 28-day treatment, group minimum
[9] = ADR-injected mice, 28-day treatment, individual mouse values

- Animals with sporadically high cholesterol levels (>122 mg/dL) ([2]; plasma, 28 days of treatment, ADR-challenged): 10%
- Cholesterol (mg/dL), Median(IQR) ([2]; serum, after ADR challenge): 91(80-159) mg/dL
- Cholesterol (mg/dL), Range ([2]; serum, after ADR challenge): 71 to 159 mg/dL
- Cholesterol, % of the group> 112 mg/dL ([2]; serum, after ADR challenge): 10%
- Triglycerides (mg/dL), Median(IQR) ([2]; serum, after ADR challenge): 94(54-116) mg/dL
- Triglycerides (mg/dL), Range ([2]; serum, after ADR challenge): 44 to 127 mg/dL
Structure (SMILES): O=C(N[C@@H]1CCCC[C@H]1O)c1ccc(OCC(F)(F)F)c(-c2ccc(Cl)c(Cl)c2)n1 [Cpd A]
- ApoA1-mediated cholesterol efflux (%) in podocytes (human podocytes; 1 uM): 4.2% and 0.9% and 3.2% and 3.5% and 3.7%
- ApoA1-mediated cholesterol efflux (%) in podocytes (human podocytes; 5 uM): 3.3% and 4.4% and 1.5% and 3.7% and 2.4% and 6.4% and 7.6% and 3.5%
- Increase in apoAI-mediated cholesterol efflux vs. untreated cells (human podocytes): ~2 fold
- BUN, QR(25) ([1]; 25th quartile): 16 mg/dL
- sCre, QR(25) ([1]; 25th quartile): 0.11 mg/dL
- BUN, QR(75) ([1]; 75th quartile): 17.75 mg/dL
- sCre, QR(75) ([1]; 75th quartile): 0.135 mg/dL
- BUN, Max ([1]; group maximum): 23 mg/dL
- sCre, Max ([1]; group maximum): 0.17 mg/dL
- BUN, Median ([1]; group median): 17 mg/dL
- sCre, Median ([1]; group median): 0.115 mg/dL
- BUN, Min ([1]; group minimum): 13 mg/dL
- sCre, Min ([1]; group minimum): 0.08 mg/dL
- Blood Urea nitrogen (BUN) ([1]; individual mouse values): 17 mg/dL and 23 mg/dL and 18 mg/dL and 19 mg/dL and 16 mg/dL and 15 mg/dL and 13 mg/dL
- Serum Creatinine sCre ([1]; individual mouse values): 0.12 mg/dL and 0.08 mg/dL and 0.17 mg/dL and 0.1 mg/dL and 0.15 mg/dL and 0.11 mg/dL and 0.14 mg/dL
- SERUM CHOLESTEROL ([2]; ADR model, individual animals): 96 and 91 and 87 and 95 and 159 and 122 and 71 and 90 and 81 and 77
- SERUM TRIGLYCERIDES ([2]; ADR model, individual animals): 108 and 116 and 127 and 60 and 44 and 80 and 53 and 54
- Serum cholesterol, QR(25) [2, 4]: 87 mg/dL
- Serum triglycerides, QR(25) [2, 4]: 55.5 mg/dL
- Serum cholesterol, QR(75) [2, 5]: 96 mg/dL
- Serum triglycerides, QR(75) [2, 5]: 116 mg/dL
- Serum cholesterol, Max [2, 6]: 159 mg/dL
- Serum triglycerides, Max [2, 6]: 127 mg/dL
- Serum cholesterol, Median [2, 7]: 91 mg/dL
- Serum triglycerides, median [2, 7]: 94 mg/dL
- Serum cholesterol, Min [2, 8]: 71 mg/dL
- Serum triglycerides, Min [2, 8]: 44 mg/dL
- SERUM CHOLESTEROL [2, 9]: 91 mg/dL and 87 mg/dL and 95 mg/dL and 159 mg/dL and 122 mg/dL and 71 mg/dL and 90 mg/dL and 77 mg/dL and 96 mg/dL
- SERUM TRIGLYCERIDES [2, 9]: 44 mg/dL and 80 mg/dL and 53 mg/dL and 54 mg/dL and 108 mg/dL and 116 mg/dL and 127 mg/dL and 60 mg/dL
- KIDNEY CORTEX TOTAL CHOLESTEROL ([3]; individual animals): 116.65 nmol Chol./mg protein and 64.31 nmol Chol./mg protein and 91.93 nmol Chol./mg protein and 226.3 nmol Chol./mg protein and 280.19 nmol Chol./mg protein and 194.83 nmol Chol./mg protein and 293.03 nmol Chol./mg protein and 87.04 nmol Chol./mg protein and 85.55 nmol Chol./mg protein and 75 nmol Chol./mg protein and 105.96 nmol Chol./mg protein
- KIDNEY CORTEX TRIGLYCERIDES ([3]; individual animals): 65.49 nmol Triglyceride /mg protein and 206.46 nmol Triglyceride /mg protein and 31.6 nmol Triglyceride /mg protein and 59.01 nmol Triglyceride /mg protein and 14.83 nmol Triglyceride /mg protein and 65.84 nmol Triglyceride /mg protein and 43.06 nmol Triglyceride /mg protein and 145.74 nmol Triglyceride /mg protein and 110.74 nmol Triglyceride /mg protein

Structure (SMILES): O=C(N[C@@H]1CCCC[C@H]1O)c1cnc(OCC(F)(F)F)c(-c2ccc(Cl)c(Cl)c2)c1 [Cpd G]
- ApoA1-mediated cholesterol efflux (%) in podocytes (human podocytes; 1 uM): 0.3% and 1.2% and 1.6%
- ApoA1-mediated cholesterol efflux (%) in podocytes (human podocytes; 5 uM): 0% and 2.5% and 2.3%
- ApoA1-mediated cholesterol efflux (%) in podocytes (human podocytes; 10 uM): 4.4% and 7.9%
- Increase in apoAI-mediated cholesterol efflux vs. untreated cells (human podocytes): ~2 fold
- KIDNEY CORTEX TOTAL CHOLESTEROL ([3]; individual animals): 79.82 nmol Chol./mg protein and 76.54 nmol Chol./mg protein and 118.96 nmol Chol./mg protein and 209.77 nmol Chol./mg protein and 137.06 nmol Chol./mg protein and 201.43 nmol Chol./mg protein and 118.77 nmol Chol./mg protein and 118.29 nmol Chol./mg protein and 88.73 nmol Chol./mg protein and 117.18 nmol Chol./mg protein
- KIDNEY CORTEX TRIGLYCERIDES ([3]; individual animals): 45.04 nmol Triglyceride /mg protein and 65 nmol Triglyceride /mg protein and 36.98 nmol Triglyceride /mg protein and 31.32 nmol Triglyceride /mg protein and 30.95 nmol Triglyceride /mg protein and 56.24 nmol Triglyceride /mg protein and 28.95 nmol Triglyceride /mg protein and 62.65 nmol Triglyceride /mg protein and 57.76 nmol Triglyceride /mg protein
- Cholesterol ester content in kidneys from individual animals ([3]; ADR, day 28 of treatment, paired with ACR of same animal): 0.13 nmol CE/mg and 0.19 nmol CE/mg and 0.14 nmol CE/mg and 0.15 nmol CE/mg and 0.03 nmol CE/mg and 0.01 nmol CE/mg and 0.17 nmol CE/mg
- Cholesterol esters in renal cortex, ADR model ([3]; Cpd G 28 days after ADR): reduced accumulation of cholesterol esters
- Renal CE content, Median ([3]; mice challenged with ADR, treated for 28 days, group median): 0.975 nmol CE/ mg protein
- Renal CE content (cholesterol ester, normalized to total proteins in kidney cortexes) ([3]; mice challenged with ADR, treated for 28 days, individual animals): 0.88 nmol CE/ mg protein and 1.16 nmol CE/ mg protein and 1.07 nmol CE/ mg protein and 1.59 nmol CE/ mg protein and 0.87 nmol CE/ mg protein and 0.53 nmol CE/ mg protein and 0.78 nmol CE/ mg protein and 0.58 nmol CE/ mg protein and 1.14 nmol CE/ mg protein and 1.47 nmol CE/ mg protein

From publication PMC8329197, “Compounds targeting OSBPL7 increase ABCA1-dependent cholesterol efflux preserving kidney function in two models of kidney disease” (Nature Communications, 2021)
